Measurements published in publication PMC6556873, “Rapid Covalent-Probe Discovery by Electrophile-Fragment Screening” (Journal of the American Chemical Society, 2019).
Read-outs that look alike come from different tables or passages of the source.

Columns and labels:
[1] = in vitro; set-up: species or system HB2, HEK293; details: human, ccd841 cells
[2] = in vitro; set-up: species or system CCD841, HEK293; details: human, hb2 cells, read-out: HB-2 Cells Viability (%)
[3] = biological target: T1, OTUB2 (OTUB2A) (Homo sapiens, UniProt Q96DC9); set-up: Intact protein LC/MS covalent labelling, fragments in pools of five, 200 uM each, 4 °C; details: 24 h, 4 °C, pool of five; 200 µM; covalent
T1 construct: full length residues 1-234, E. coli BL21(DE3)-R3, His tag removed by TEV, construct 27312 Da
T1 sequence (Q96DC9 1-234): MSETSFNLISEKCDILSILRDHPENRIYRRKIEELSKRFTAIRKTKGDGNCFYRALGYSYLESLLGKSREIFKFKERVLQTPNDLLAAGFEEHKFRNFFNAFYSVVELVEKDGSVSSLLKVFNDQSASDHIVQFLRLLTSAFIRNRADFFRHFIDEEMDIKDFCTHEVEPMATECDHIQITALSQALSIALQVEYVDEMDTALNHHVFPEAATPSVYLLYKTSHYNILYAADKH

[4] = biological target: T2, NUDT7 (Homo sapiens, UniProt P0C024); set-up: Intact protein LC/MS covalent labelling, fragments in pools of five, 200 uM each, 4 °C; details: 24 h, 4 °C, pool of five; 200 µM; covalent
T2 construct: residues 14-235, E. coli, pNIC28-Bsa4, N-terminal His6 tag removed by TEV, construct 26672 Da
T2 sequence (P0C024 14-235): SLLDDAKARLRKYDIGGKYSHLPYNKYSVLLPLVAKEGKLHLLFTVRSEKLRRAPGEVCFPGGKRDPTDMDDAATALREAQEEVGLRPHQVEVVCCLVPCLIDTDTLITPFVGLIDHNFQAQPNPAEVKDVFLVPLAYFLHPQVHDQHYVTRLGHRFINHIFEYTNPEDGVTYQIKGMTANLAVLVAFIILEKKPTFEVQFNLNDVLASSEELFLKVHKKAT

[5] = biological target: T3, NNMT (hNNMT) (Homo sapiens, UniProt P40261); set-up: Intact protein LC/MS covalent labelling, fragments in pools of five, 200 uM each, 4 °C; details: 24 h, 4 °C, pool of five; 200 µM; covalent
T3 construct: wild type, N-terminal His6 tag kept (no cleavage described), E. coli, construct 31248 Da
T3 sequence (P40261 1-264): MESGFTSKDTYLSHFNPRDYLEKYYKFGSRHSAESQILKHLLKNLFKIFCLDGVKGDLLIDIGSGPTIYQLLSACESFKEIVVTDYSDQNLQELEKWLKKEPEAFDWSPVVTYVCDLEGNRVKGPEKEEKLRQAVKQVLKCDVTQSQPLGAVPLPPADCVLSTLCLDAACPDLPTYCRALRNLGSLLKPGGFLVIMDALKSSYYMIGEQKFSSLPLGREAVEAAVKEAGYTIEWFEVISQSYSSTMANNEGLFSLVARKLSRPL

[6] = biological target: T4, PCAF (Homo sapiens, UniProt Q92831); set-up: Intact protein LC/MS covalent labelling, fragments in pools of five, 200 uM each, 4 °C; details: 24 h, 4 °C, pool of five; 200 µM; covalent
T4 construct: gene KAT2B
T4 sequence (Q92831 whole entry, the tested form may be a part): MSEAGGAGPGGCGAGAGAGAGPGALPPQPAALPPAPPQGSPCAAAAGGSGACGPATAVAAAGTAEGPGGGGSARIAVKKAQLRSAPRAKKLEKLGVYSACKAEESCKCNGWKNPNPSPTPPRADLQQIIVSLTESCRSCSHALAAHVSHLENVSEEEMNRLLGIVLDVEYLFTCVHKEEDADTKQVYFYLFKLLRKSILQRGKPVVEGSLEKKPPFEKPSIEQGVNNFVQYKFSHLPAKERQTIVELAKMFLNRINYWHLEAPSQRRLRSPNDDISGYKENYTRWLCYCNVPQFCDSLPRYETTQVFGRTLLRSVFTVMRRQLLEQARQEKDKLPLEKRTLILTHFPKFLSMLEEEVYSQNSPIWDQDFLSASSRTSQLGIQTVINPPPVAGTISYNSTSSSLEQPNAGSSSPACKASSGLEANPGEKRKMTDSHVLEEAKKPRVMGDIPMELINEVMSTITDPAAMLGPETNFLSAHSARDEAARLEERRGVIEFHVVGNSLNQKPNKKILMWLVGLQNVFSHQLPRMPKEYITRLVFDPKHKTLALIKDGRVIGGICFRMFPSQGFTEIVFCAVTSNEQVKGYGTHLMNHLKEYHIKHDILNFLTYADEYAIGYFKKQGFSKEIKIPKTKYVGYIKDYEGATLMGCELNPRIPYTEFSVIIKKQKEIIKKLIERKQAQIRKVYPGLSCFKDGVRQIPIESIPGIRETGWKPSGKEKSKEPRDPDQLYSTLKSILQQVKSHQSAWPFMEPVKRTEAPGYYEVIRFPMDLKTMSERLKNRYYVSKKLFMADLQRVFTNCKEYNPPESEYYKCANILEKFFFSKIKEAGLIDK

[7] = biological target: T5, BSA (Bos taurus, UniProt P02769); set-up: Intact protein LC/MS covalent labelling, fragments in pools of five, 200 uM each, 4 °C; details: 24 h, 4 °C, pool of five; 200 µM; covalent
T5 construct: gene ALB
T5 sequence (P02769 whole entry, the tested form may be a part): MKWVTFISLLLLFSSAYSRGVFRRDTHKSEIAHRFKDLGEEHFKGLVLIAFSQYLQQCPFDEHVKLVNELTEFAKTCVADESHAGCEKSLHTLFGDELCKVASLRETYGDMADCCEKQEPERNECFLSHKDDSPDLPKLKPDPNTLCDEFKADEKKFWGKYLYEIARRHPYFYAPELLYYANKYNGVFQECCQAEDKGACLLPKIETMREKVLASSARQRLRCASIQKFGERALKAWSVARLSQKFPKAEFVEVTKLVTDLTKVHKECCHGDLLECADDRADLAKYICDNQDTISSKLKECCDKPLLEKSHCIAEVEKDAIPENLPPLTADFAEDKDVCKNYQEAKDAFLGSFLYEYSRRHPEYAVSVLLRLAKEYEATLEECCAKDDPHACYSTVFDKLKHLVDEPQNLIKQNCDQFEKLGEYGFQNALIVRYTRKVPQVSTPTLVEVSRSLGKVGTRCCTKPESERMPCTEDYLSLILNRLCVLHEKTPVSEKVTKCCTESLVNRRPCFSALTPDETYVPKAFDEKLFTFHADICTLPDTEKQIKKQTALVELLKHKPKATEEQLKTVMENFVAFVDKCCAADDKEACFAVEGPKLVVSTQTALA

[8] = in vitro; set-up: species or system HB2, CCD841; details: human, hek293 cells

OTUB2 [3] | NUDT7 [4] | NNMT [5] | PCAF [6] | BSA [7] | SMILES | viability at 48 h, 10 µM [1] [%] | viability at 48 h, 10 µM [2] [%] | viability at 48 h, 10 µM [8] [%]
0 | 0 | 0 | 0 | 0 | O=C(CCl)NC(=O)NCC1COc2ccccc2O1 (stereo not drawn) [PCM-0102092] | 33.4 | 49 | 7.6
0.51 | 0 | 0 | 0 | 0 | Cc1csc(CC(=O)NNC(=O)CCl)n1.Cl [PCM-0102095] | 79 | 93.3 | 81.9
0.09 | 0 | 0 | 0 | 0 | O=C(CCl)NC(=O)NC1CCS(=O)(=O)C1 (stereo not drawn) [PCM-0102100] | 106 | 101 | 99.5
0 | 0 | 0 | 0 | 0 | CNC(=O)c1cccc(NC(=O)CCl)c1 [PCM-0102113] | 55 | 25.2 | 1.7
0 | 0 | 0.23 | 0 | 0 | O=C(CCl)NC12CC3CC(CC(C3)C1)C2 [PCM-0102118] | 76.1 | 83 | 71.1
0 | 0.09 | 0.57 | 0 | 0 | Cc1ccc(NC(=O)NC(=O)CCl)cc1C [PCM-0102119] | 63.5 | 48.8 | 63.3
0.42 | 0.13 | 0 | 0 | 0 | CC(NC(=O)CCl)c1ccccc1 (stereo not drawn) [PCM-0102128] | 85.5 | 84.4 | 84.3
– | 0 | 0 | 0 | 0 | N#CC1(NC(=O)CCl)CCCC1 [PCM-0102136] | 61.1 | 70 | 44
0.05 | 0.22 | 0 | 0 | – | O=C1CN(C(=O)CCl)C2(CCCCC2)C(=O)N1 [PCM-0102139] | 95.8 | 98.9 | 96.3
– | 0 | 0.2 | 0 | 0 | Cc1ccccc1CNC(=O)CCl [PCM-0102253] | 86.6 | 99.6 | 93.4
– | 0 | 0 | 0 | 0 | O=C(CCl)NC1CCCCCCC1 [PCM-0102318] | 92.1 | 86.6 | 66.1
– | 0 | 0.2 | 0 | 0 | C=CC(=O)Nc1ccc(N(C)C)cc1 [PCM-0102461] | 111 | 102 | 81.3
0 | 0 | 0 | 0 | – | C=CC(=O)N1CCCC1c1cccc2c1OCCO2 (stereo not drawn) [PCM-0102489] | 99.1 | 96.3 | 89.9
0.18 | 0.18 | 0.51 | 0 | 0 | O=C(CCl)N1CCC(Cc2ccccc2)CC1 [PCM-0102492] | – | – | –
– | 0 | 0.22 | 0 | 0 | C=CC(=O)N1CCC(c2nc(C(F)(F)F)c[nH]2)CC1 [PCM-0102513] | 99.4 | 95.7 | 111
– | 0 | 0.22 | 0 | 0 | C=CC(=O)NC1CCCN(C(=O)OC)C1 (stereo not drawn) [PCM-0102526] | 106 | 101 | 90.7
0 | 0 | 0 | 0 | – | C=CC(=O)N1CCC(c2nc3cccc(C)c3o2)CC1 [PCM-0102530] | 101 | 108 | 94
– | 0 | 0.21 | 0 | 0 | C=CC(=O)NCc1ccc2c(c1)C(C)(C)C(=O)N2 [PCM-0102570] | 110 | 107 | 92
– | 0 | 0 | 0 | 0 | C=CC(=O)N1CCNC(=O)C1c1cccs1 (stereo not drawn) [PCM-0102597] | 113 | 103 | 81
– | 0.12 | 0 | 0 | 0 | O=C(CCl)Nc1cc2c(cc1Cl)C(=O)c1ccccc1C2=O [PCM-0102757] | 58.4 | 1.4 | 22.5
– | 0.13 | 0.21 | 0 | 0 | CC1CCC(N(C(=O)CCl)C2CC2)CC1 (stereo not drawn) [PCM-0102792] | 8.8 | 11.4 | 6.8
0 | 0 | 0 | 0 | 0 | C=CC(=O)Nc1cccc(OC)c1 [PCM-0102800] | – | – | –
– | 0.14 | 0.53 | 0 | 0 | O=C(CCl)Nc1ccc(N2CCCCC2)nc1 [PCM-0102812] | 61.5 | 32.5 | 4.4
0.32 | 0.08 | 0.22 | 0 | 0 | O=C(CCl)Nc1ccc2c(c1)NC(=O)CO2 [PCM-0102890] | – | – | –
0 | 0 | 0 | 0 | 0.19 | C=CC(=O)Nc1cccc(F)c1 [PCM-0102922] | – | – | –
0.35 | 0 | 0.23 | 0 | – | N#Cc1ccc(CNC(=O)CCl)cc1 [PCM-0102946] | 74.8 | 85 | 88.1
0 | 0.07 | 0 | 0 | – | O=C(CCl)N1CCN(C(=O)C2CC2)CC1 [PCM-0102970] | 72.5 | 83.8 | 66.6
0.79 | 0 | – | 0 | 0 | O=C(CCl)NCc1ccc(Cl)s1 [PCM-0103080] | 61.2 | 79.6 | 73
0 | 0.15 | – | 0 | 0 | Cc1ccc(N(C(=O)CCl)C2C=CS(=O)(=O)C2)cc1C (stereo not drawn) [PCM-0103082] | 10.5 | 19.6 | 4.1
0 | 0 | – | 0 | 0 | C=CC(=O)NC1CCCn2nc(C)nc21 (stereo not drawn) [PCM-0103083] | 116 | 105 | 115

SMILES | OTUB2 [3] | NUDT7 [4] | NNMT [5] | PCAF [6] | BSA [7] | viability at 48 h, 10 µM [1] [%] | viability at 48 h, 10 µM [2] [%] | viability at 48 h, 10 µM [8] [%]
CCN(C(=O)CCl)C1=CCCCC1 [PCM-0103084] | 0 | 0 | – | 0 | 0.19 | 97.8 | 106 | 120
